What all share (test): NCI tumour cell line growth inhibition, 48 h
The subject of test [1] is A498.
For test [2], the system named is OVCAR-8.
Test [3] concerns SNB-75.
Test [4] concerns LXFL 529.
Test [5] concerns OVCAR-4.
Test [6] relates to SF-295.
Test [7] relates to KM12.
Test [8] relates to CAKI-1.
For test [9], the system named is SK-MEL-28.
Test [10] concerns SK-OV-3.
For test [11], the system named is OVCAR-5.
Test [12] has as its system SF-268.
Test [13] has as its system M14.
In test [14] the test system is HOP-92.
In test [15] the test system is LOX IMVI.
For test [16], the system named is ACHN.
Test [17] relates to SK-MEL-2.
The test system of test [18] is UO-31.

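Step 1: Grow cells in 96-well plates. Step 2: Expose to compound for 48 hours at 5 concentrations. Step 3: Interpolate endpoints linearly; if unreached, use highest concentration. GI50 = concentration required for 50% inhibition of growth.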 The source made the active and inactive calls. Cut-off read from the data, not from the text of the source: active = GI50 up to about 1.1 µM and inactive = higher. A value given as a limit tells only on which side of the number the result lay.

As to `CC(/C=C/NNC1=NN=C(c2ccccc2)C(c2ccccc2)N1)Sc1ccccc1N` (stereo not given), the GI50 is 13.6 µM (inactive) in test [1]; 4.36 µM (inactive) in test [2]; 3.3 µM (inactive) in [3]; 4.98 µM (inactive) in [4]; 6.21 µM (inactive) in [5]; 10.5 µM (inactive) in test [6]. Besides, the GI50 in [7] was 8.85 µM (inactive); in test [8], 14.7 µM (inactive); in [9] it was 8.93 µM (inactive); in test [10], 17.1 µM (inactive); in [11], 17.5 µM (inactive); in test [12], 4.53 µM (inactive). For the same compound, the GI50 was 3.41 µM (inactive) in test [13]; 8.39 µM (inactive) in test [14]; 3.18 µM (inactive) in test [15]; 10.4 µM (inactive) in test [16]; 7.29 µM (inactive) in test [17]; 6.53 µM (inactive) in [18].

As to `O=c1[nH]c(S)nc2c1sc(=S)n2-c1ccccc1`, the GI50 in [1] was > 100 µM (inactive); in test [2] it was > 100 µM (inactive); in [3], 55.1 µM (inactive); in test [4] it was > 100 µM (inactive); in test [5], > 100 µM (inactive); in test [6], > 100 µM (inactive). The GI50 in test [7], in [8], in [9], in [10], in [11] and in [12] was > 100 µM (inactive) in each case. The GI50 in test [13] was > 100 µM (inactive); in [14] it was 55.3 µM (inactive); in test [15], > 100 µM (inactive); in [16], > 100 µM (inactive); in test [17], > 100 µM (inactive); in [18], > 100 µM (inactive).

On to `COc1ccc(-c2cc(-c3cc(Cl)cc(Br)c3O)nc(O)n2)cc1`, for which the GI50 in test [1] was 16.6 µM (inactive); in test [2], 16.7 µM (inactive); in test [3], 15.4 µM (inactive); in test [4], 14.6 µM (inactive); in test [5], 5.66 µM (inactive); in test [6], 18 µM (inactive). Further, the GI50 in [7] was 18.9 µM (inactive); in test [8], 16.4 µM (inactive); in test [9], 19.9 µM (inactive); in [10], 19.5 µM (inactive); in test [12], 16.3 µM (inactive); in [13] it was 19.2 µM (inactive). Besides, the GI50 was 17.8 µM (inactive) in [14], 17.3 µM (inactive) in test [15], 14.2 µM (inactive) in test [16] and 17.3 µM (inactive) in test [18].

For the compound `BrC12C3C4C5C(C(C43)C13OCCO3)C52` (stereo not given), the GI50 in test [1], in test [2], in test [3], in test [4], in test [6] and in [7] was > 100 µM (inactive) each time. In addition, the GI50 in [9] was > 100 µM (inactive); in test [10], > 100 µM (inactive); in test [11], > 100 µM (inactive); in test [12] it was > 100 µM (inactive); in test [14], 58.1 µM (inactive); in test [15] it was > 100 µM (inactive). Also, the GI50 in test [16], in test [17] and in test [18] was > 100 µM (inactive) throughout.

For `Cc1cc2nc(O)c(CCC(=O)O)nc2cc1C`, the GI50 in test [1], in test [2], in test [3], in test [4], in test [5] and in [6] was > 100 µM (inactive) in each case. For the same compound, the GI50 in test [7], in test [8], in test [9], in test [10], in [11] and in test [12] was > 100 µM (inactive) throughout. In addition, the GI50 in test [13], in test [14], in [15], in test [16], in [17] and in test [18] was > 100 µM (inactive) throughout.

Consider `Cc1ccc2nc(NC(=O)C(=O)C(C#N)c3nc4ccccc4s3)sc2c1` (stereo not given), for which the GI50 is 19.5 µM (inactive) in [1]; 30.4 µM (inactive) in test [2]; 40.6 µM (inactive) in test [3]; 28.4 µM (inactive) in test [4]; 39 µM (inactive) in test [5]; 37.2 µM (inactive) in test [6]. Moreover, the GI50 in test [7] was 47.2 µM (inactive); in test [8] it was 42.2 µM (inactive); in [9] it was 51.8 µM (inactive); in [10], 55.8 µM (inactive); in test [11], 57.5 µM (inactive); in [12], 51.6 µM (inactive). For the same compound, the GI50 in test [13] was 33.8 µM (inactive); in [14] it was 26.4 µM (inactive); in test [15] it was 37.2 µM (inactive); in [16], 42.3 µM (inactive); in [17], 32.4 µM (inactive); in test [18] it was 39.8 µM (inactive).

For the compound `CC(=O)O[C@@H]1CC(C)C2CC2C2=C(C(O)OC2O)[C@@H]1C(C)CCC=C(C)C` (stereo not given in full), the GI50 in test [1] is 35.7 µM (inactive); in test [2], 27 µM (inactive); in test [3], 26.9 µM (inactive); in test [4] it was 27.6 µM (inactive); in test [5], 24.4 µM (inactive); in test [8], 26.4 µM (inactive). Moreover, the GI50 in test [9] is 36.7 µM (inactive); in test [11], 18.3 µM (inactive); in test [12], 25.8 µM (inactive); in test [13], 31 µM (inactive); in test [14] it was 12.8 µM (inactive); in test [15], 20.8 µM (inactive). In addition, the GI50 in [16] was 31.7 µM (inactive); in test [17] it was 29.9 µM (inactive); in test [18], 22.2 µM (inactive).

On to `O=C1C(c2ccccc2)=[N+]([O-])c2ccc(Cl)cc21`, for which the GI50 in test [1] was > 100 µM (inactive); in [2], 15 µM (inactive); in test [3], 46.8 µM (inactive); in test [4], 13.6 µM (inactive); in test [6], 34.1 µM (inactive); in test [7] it was 30.1 µM (inactive). Besides, the GI50 is 20 µM (inactive) in [9]; > 100 µM (inactive) in test [10]; 35.2 µM (inactive) in [11]; 22.4 µM (inactive) in test [12]; 27.8 µM (inactive) in [13]; 0.0256 µM (active) in [14]. The GI50 in test [15] is 18.4 µM (inactive); in test [16] it was 23.2 µM (inactive); in [17], > 100 µM (inactive); in [18], 43.3 µM (inactive).

For the compound `NCCSc1cc(O)c2c(c1N)C(=O)c1ccccc1C2=O`, the GI50 is 91.2 µM (inactive) in test [1]; 27.9 µM (inactive) in test [2]; 67.6 µM (inactive) in [3]; 38.2 µM (inactive) in [4]; 99.3 µM (inactive) in test [5]; 46 µM (inactive) in [6]. The GI50 in test [7] was 51.2 µM (inactive); in test [8], > 100 µM (inactive); in test [9], > 100 µM (inactive); in test [10], > 100 µM (inactive); in test [11], > 100 µM (inactive); in test [12], 55.8 µM (inactive). The GI50 in [13] is 74.3 µM (inactive); in test [14], 60.5 µM (inactive); in test [16] it was 43.8 µM (inactive); in test [17], 65.6 µM (inactive); in test [18] it was > 100 µM (inactive).

As for `COC(=O)C1=Cc2cc(OC)c(OC)c(OC)c2[C@H](c2cc(OC)c(OC)c(OC)c2)C1C(=O)OC` (stereo not given in full), the GI50 in test [1], in test [2], in test [3], in test [4], in test [5] and in test [6] was > 100 µM (inactive) throughout. Besides, the GI50 in [7], in test [8], in [9], in [10], in test [11] and in test [12] was > 100 µM (inactive) each time. Besides, the GI50 in test [13] was > 100 µM (inactive); in test [14], 1.73 µM (inactive); in [15], > 100 µM (inactive); in [16], > 100 µM (inactive); in test [18], > 100 µM (inactive).

Turning to `O=C1CC2=CCCC2O1` (stereo not given), the GI50 in test [1], in test [2], in test [3], in [4], in test [5] and in test [6] was > 100 µM (inactive) in each case. The GI50 in test [7], in test [8], in test [9], in [10], in test [12] and in test [13] was > 100 µM (inactive) each time. In addition, the GI50 in test [14], in test [15], in test [17] and in test [18] was > 100 µM (inactive) throughout.

For the compound `CC1CC2C3CCC4=CC(=O)C=CC4(C)C3(F)C(O)CC2(C)C1(O)C(=O)CO.Cc1nnc(NS(=O)(=O)c2ccc(/N=N/c3cc(/N=N/c4ccc(S(=O)(=O)Nc5nnc(C)s5)cc4)c4c(NC(=O)C(Cl)Cl)cccc4c3OC(=O)C(Cl)Cl)cc2)s1`, the GI50 in [1] is 30.1 µM (inactive); in test [2], 11.6 µM (inactive); in test [3], 37.3 µM (inactive); in [4], 31.9 µM (inactive); in test [5] it was 22.6 µM (inactive); in test [6] it was 42.3 µM (inactive). For the same compound, the GI50 was 23.6 µM (inactive) in [7]; 81.5 µM (inactive) in [8]; 20.8 µM (inactive) in [9]; 27.9 µM (inactive) in [11]; 24 µM (inactive) in test [12]; 28.4 µM (inactive) in test [13]. The GI50 is 51.6 µM (inactive) in [14], 33.3 µM (inactive) in [15], 21.2 µM (inactive) in [17] and 46.7 µM (inactive) in test [18].

The values are drawn from ChEMBL document CHEMBL1201862, “PubChem BioAssay data set” (2004).
